Data as given in US12723063B2, “GIPR-agonist compounds” (Eli Lilly and Company, priority 2019, dated 2026).
*1 amine or outer side, *2 acyl side, *3 side chain or, on linkers, in order; H or OH if unused. Where a SMILES comes first, the peptide text is derived from it. Side-chain parts run from the residue outwards. [ ]: non-standard residue; d: D form. The star is where a group is joined. C20 diacid = O=C(O)CCCCCCCCCCCCCCCCCCC(=O)*; αMePhe(2-F) = C[C@](N)(Cc1ccccc1F)C(=O)O; γGlu = O=C(O)[C@H](CCC(=O)[*:2])N[*:1]; αMeF = C[C@](N)(Cc1ccccc1)C(=O)O; 4Pal = N[C@@H](Cc1ccncc1)C(=O)O; AEEA = NCCOCCOCC(=O)O; Aib = CC(C)(N)C(=O)O

Experiments:
[1] = biological target: T1, human GIPR (Homo sapiens, UniProt P48546); assay: [125I]-GIP binding, SPA with WGA beads, 0.1% bacitracin; conditions: geometric mean, read-out: hGIPR Ki
T1 construct: expressed in transfected cells; crude membranes
T1 sequence (P48546 22-466): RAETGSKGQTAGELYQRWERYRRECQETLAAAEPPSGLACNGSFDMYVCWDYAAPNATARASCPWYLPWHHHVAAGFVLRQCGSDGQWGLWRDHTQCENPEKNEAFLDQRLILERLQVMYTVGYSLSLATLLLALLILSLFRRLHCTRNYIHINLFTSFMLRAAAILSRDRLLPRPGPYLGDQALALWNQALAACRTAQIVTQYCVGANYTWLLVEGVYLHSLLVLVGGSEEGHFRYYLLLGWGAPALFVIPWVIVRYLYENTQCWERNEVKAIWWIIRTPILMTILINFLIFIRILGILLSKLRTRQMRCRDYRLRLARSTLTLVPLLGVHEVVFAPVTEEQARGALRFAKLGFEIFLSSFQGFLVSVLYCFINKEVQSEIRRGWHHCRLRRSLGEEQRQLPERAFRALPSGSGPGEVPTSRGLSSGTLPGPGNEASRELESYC
Outline: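 Ki values are geometric means (SEM, n independent days), derived from four-parameter nonlinear regression of IC50. Membranes came from hGIPR-expressing CHO cells.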

[2] = biological target: T2, human GLP-1R (Homo sapiens, UniProt P43220); assay: [125I]-GLP-1 binding, SPA with WGA beads, 0.1% bacitracin; conditions: geometric mean, read-out: hGLP1R Ki
T2 construct: expressed in transfected cells; crude membranes
Outline: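 Binding buffer was 25 mM HEPES pH 7.4 with 2.5 mM CaCl2, 1 mM MgCl2, 0.1% (w/v) bacitracin, 0.003% Tween-20 and EDTA-free protease inhibitors. Four-parameter regression gave IC50, converted to Ki (geometric mean, SEM, n independent days).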

T2 sequence (P43220 24-463): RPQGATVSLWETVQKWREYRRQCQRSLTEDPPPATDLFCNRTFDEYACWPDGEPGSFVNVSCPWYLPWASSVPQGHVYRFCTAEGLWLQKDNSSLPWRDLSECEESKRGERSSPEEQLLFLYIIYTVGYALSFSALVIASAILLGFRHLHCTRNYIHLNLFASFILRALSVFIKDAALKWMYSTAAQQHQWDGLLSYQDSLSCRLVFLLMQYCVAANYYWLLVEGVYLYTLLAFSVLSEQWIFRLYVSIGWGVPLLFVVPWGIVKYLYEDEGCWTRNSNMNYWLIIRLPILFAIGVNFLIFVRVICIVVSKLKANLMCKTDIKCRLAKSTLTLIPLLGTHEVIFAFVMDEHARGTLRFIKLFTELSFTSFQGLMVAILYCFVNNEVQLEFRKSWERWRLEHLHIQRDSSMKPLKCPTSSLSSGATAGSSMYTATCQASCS

SMILES | Ki [1] [nM] | Ki [2] [nM]
CC[C@H](C)[C@H](NC(=O)[C@H](CO)NC(=O)[C@H](Cc1ccc(O)cc1)NC(=O)[C@H](CC(=O)O)NC(=O)[C@H](CO)NC(=O)[C@@H](NC(=O)[C@](C)(Cc1ccccc1)NC(=O)[C@@H](NC(=O)CNC(=O)[C@H](CCC(=O)O)NC(=O)C(C)(C)NC(=O)[C@@H](N)Cc1ccc(O)cc1)[C@@H](C)O)[C@@H](C)CC)C(=O)N[C@@H](C)C(=O)N[C@@H](CC(C)C)C(=O)N[C@@H](CC(=O)O)C(=O)N[C@@H](CCCCN)C(=O)N[C@H](C(=O)N[C@@H](Cc1c[nH]cn1)C(=O)N[C@@H](CCC(N)=O)C(=O)NC(C)(C)C(=O)N[C@@H](CCC(=O)O)C(=O)N[C@@H](Cc1ccccc1)C(=O)N[C@H](C(=O)N[C@@H](CC(N)=O)C(=O)N[C@@H](Cc1ccc(O)cc1)C(=O)N[C@@H](CCCCNC(=O)COCCOCCNC(=O)COCCOCCNC(=O)CC[C@H](NC(=O)CCCCCCCCCCCCCCCCCCC(=O)O)C(=O)O)C(=O)N[C@@H](CC(C)C)C(=O)N[C@@H](C)C(=O)NCC(=O)NCC(=O)N1CCC[C@H]1C(=O)N[C@@H](CO)C(=O)N[C@@H](CO)C(=O)NCC(=O)N[C@@H](C)C(=O)N1CCC[C@H]1C(=O)N1CCC[C@H]1C(=O)N1CCC[C@H]1C(=O)N[C@@H](CO)C(N)=O)C(C)C)[C@@H](C)CC [Example 97] (H-Y[Aib]EGT[αMeF]ISDYSIALDKIHQ[Aib]EFVNYK([AEEA-AEEA-γGlu-C20 diacid])LAGGPSSGAPPPS-NH2) | 0.0249 | 570
CC[C@H](C)[C@H](NC(=O)[C@H](CO)NC(=O)[C@H](Cc1ccc(O)cc1)NC(=O)[C@H](CC(=O)O)NC(=O)[C@H](CO)NC(=O)[C@@H](NC(=O)[C@](C)(Cc1ccccc1F)NC(=O)[C@@H](NC(=O)CNC(=O)[C@H](CCC(=O)O)NC(=O)C(C)(C)NC(=O)[C@@H](N)Cc1ccc(O)cc1)[C@@H](C)O)[C@@H](C)CC)C(=O)N[C@@H](C)C(=O)N[C@@H](CC(C)C)C(=O)N[C@@H](CC(=O)O)C(=O)N[C@@H](CCCCN)C(=O)N[C@H](C(=O)N[C@@H](Cc1c[nH]cn1)C(=O)N[C@@H](CCC(N)=O)C(=O)NC(C)(C)C(=O)N[C@@H](CC(=O)O)C(=O)N[C@@H](Cc1ccccc1)C(=O)N[C@H](C(=O)N[C@@H](CCC(=O)O)C(=O)N[C@@H](Cc1ccncc1)C(=O)N[C@@H](CCCCNC(=O)COCCOCCNC(=O)COCCOCCNC(=O)CC[C@H](NC(=O)CCCCCCCCCCCCCCCCCCC(=O)O)C(=O)O)C(=O)N[C@@H](CC(C)C)C(=O)N[C@@H](CCC(=O)O)C(=O)N[C@@H](C)C(=O)NCC(=O)N1CCC[C@H]1C(=O)N[C@@H](CO)C(=O)N[C@@H](CO)C(=O)NCC(=O)N[C@@H](C)C(=O)N1CCC[C@H]1C(=O)N1CCC[C@H]1C(=O)N1CCC[C@H]1C(=O)N[C@@H](CO)C(N)=O)C(C)C)[C@@H](C)CC [Example 113] (H-Y[Aib]EGT[αMePhe(2-F)]ISDYSIALDKIHQ[Aib]DFVE[4Pal]K([AEEA-AEEA-γGlu-C20 diacid])LEAGPSSGAPPPS-NH2) | 0.108 | > 921
